Measured values from patent publication US12410124B2 (priority 2019, dated 2025).

Key:
Format in all cases: in vivo
hippocampus CD11b = test: Number of hippocampus microglial cells with CD11b positive expression in MPTP Parkinson's disease model mouse (immunohistochemistry); settings: for Positive cell number (microglial cells with CD11b positive expression): hippocampus, MPTP Parkinson's disease model mouse, immunohistochemistry
Description: (§1) Neurotoxins can be used to establish PD animal models. Currently, 1-methyl-4-phenyl-1,2,3,6-tetrahydropyridine (MPTP) is the sole synthetic toxin which is recognized to induce PD symptoms in human and non-human primates and in mice. Using MPTP subacute modeling method, C57BL/6J male mice were intraperitoneally injected with MPTP 30 mg/kg, once a day for 5 consecutive days. The experiment animals were divided into blank control group, MPTP model group, and compound treatment group. For the […] compound treatment group, the compound was administrated by gavage for 21 consecutive days after the completion of modeling; for the MPTP model group, the normal saline was administrated by gavage for 21 consecutive days after the completion of modeling; and for the blank control group, the normal saline was first intraperitoneally injected for 5 days, and then administrated by gavage for 21 days.
(§2) Neuron-glial cell network homeostasis disorder is an important factor for the selective and progressive death of substantia nigra dopaminergic neurons in PD. In the neurotoxic effect of MPTP, the excessive activations of microglial cells and astrocytes produce a variety of inflammatory cytokines and reactive oxygen species (ROS). These inflammatory factors and ROS amplify their respective toxicities and mediate malignant feedback loop, causing a cascade inflammation response and aggravating the pathological process of PD. CD11b and GFAP are the marker proteins for activations of microglial cells and astrocytes, respectively. Therefore, the effect of the target compounds on the activations of the microglial cells and astrocytes in the substantia nigra, hippocampus, and midbrain areas of MPTP-induced PD mice can be investigated, to explore the mechanism of the anti-PD effect of the target compounds by inhibiting the neuroinflammation.
(§3) Half of experiment mice in each group were taken to separate the midbrain after perfusion and fixation. The tissue was trimmed, and the hippocampus area was taken to prepare paraffin sections. The CD11b immunohistochemical staining was performed for the statistics of the change in the number of microglial cells with CD11b positive expression. The experiment included blank control group, MPTP model group, positive control group (caffeic acid phenethyl ester, CAPE), prototype control group (styryl sulfone compounds 3B, 3C, 3D, and 3G, whose structures are shown as above), and target compound group.

midbrain TH = test: Midbrain TH expression in MPTP Parkinson's disease model mouse (western-blotting); settings: midbrain total protein, GAPDH internal reference, gavage 21 days after MPTP modeling
Description: as §1
The main cause of PD lies in the pathological changes in the substantia nigra-striatum projection system of the brain and the progressive degeneration and loss of dopaminergic neurons. Tyrosine hydroxylase (TH) is the first enzyme in the biosynthesis of catecholamine neurotransmitters, as well as the first rate-limiting enzyme in the dopamine synthesis. It plays an important role in the synthesis and metabolism of the neurotransmitter DA. The TH in PD animal models and patients has a wide range of abnormal changes, from the gene expression to the enzyme protein content and enzyme activity. The detection of the TH expression in the midbrain and substantia nigra of PD model mice can be used to evaluate the neuroprotective activity of the compound.
(§4) Half of experiment mice in each group were taken to extract the total midbrain protein, and the change in the midbrain TH was determined by western-blotting using GAPDH as the internal reference. The experiment included blank control group, MPTP model group, positive control group (caffeic acid phenethyl ester, CAPE), prototype control group (styryl sulfone compounds 3B, 3C, 3D, and 3G, whose structures are shown as above), and target compound group.

substantia nigra CD11b = test: Number of substantia nigra microglial cells with CD11b positive expression in MPTP Parkinson's disease model mouse (immunohistochemistry); settings: for Positive cell number (microglial cells with CD11b positive expression): substantia nigra, MPTP Parkinson's disease model mouse, immunohistochemistry
Description: as §1, §2
as §3, with “substantia nigra” for “hippocampus”

substantia nigra pp38 = test: Substantia nigra pp38 protein expression in MPTP Parkinson's disease model mouse (immunofluorescence); settings: percentage of mean intensity of blank control group, gavage 21 days after MPTP modeling
Description: as §1
The p38 mitogen-activated protein kinase (p38 MAPK) is expressed in both neurons and glial cells, and is the intersection point of neuron-glial cell network information regulations. The activation of p38 signaling pathway is an important initiator of neuronal degeneration, which continuously induces the apoptosis of dopaminergic neurons in multiple ways. It has become a research hotspot for the treatment of PD. Studies have shown that the protective mechanism of CAPE against the death of primary cultured cerebellar granule neurons induced by glutamate lies in inhibiting the activation of p38 phosphorylation and in turn inhibiting the activation of the caspase 3 apoptotic pathway to prevent neuronal apoptosis. Therefore, the MPTP-induced PD mouse model can be used to investigate the inhibitory effect of the target compounds on the activation of p38 phosphorylation on the overall animal level.
as §3, with “substantia nigra-striatum” for “hippocampus”, “double immunofluorescence” for “CD11b immunohistochemical”, “staining for TH and phosphorylated p38” for “staining”, “performed to observe the coexpression of TH and phosphorylated p38,” for “performed”, “phosphorylated p38 protein” for “number of microglial cells with CD11b positive”

midbrain p-α-s = test: Midbrain p-α-s protein expression in MPTP Parkinson's disease model mouse (western-blotting); settings: midbrain total protein, GAPDH internal reference, gavage 21 consecutive days after MPTP modeling
Description: as §1
Alpha-synuclein is an “unfolded protein” in its natural state. It exists in a monomeric form, and participates in the physiological functions such as the release of neurotransmitters, the establishment of synaptic junctions, and the regulation of synaptic plasticity. Under pathological conditions, more than 90% of alpha-synuclein is phosphorylated at serine of position 129 and converted into phosphorylated alpha-synuclein (p-α-s), thereby forming Lewy bodies. The formation of Lewy bodies is one of the main pathological manifestations and pathological mechanisms for Parkinson's disease, and plays an important role in the formation and development of PD. The detection of the p-α-s expression in the midbrain and substantia nigra of PD model mice can evaluate the neuroprotective activity of the compound.
as §4, with “P-α-s protein expression” for “TH”

hippocampus GFAP = test: Number of hippocampus astrocytes with GFAP positive expression in MPTP Parkinson's disease model mouse (immunohistochemistry); settings: for Positive cell number (astrocytes with GFAP positive expression): hippocampus, MPTP Parkinson's disease model mouse, immunohistochemistry
Description: as §1, §2
as §3, with “GFAP” for “CD11b”, “astrocytes” for “microglial cells”

SMILES	Positive cell number (microglial cells with CD11b positive expression) (hippocampus CD11b)	Expression (TH/GAPDH) (midbrain TH)	Positive cell number (microglial cells with CD11b positive expression) (substantia nigra CD11b)	Expression (Immunofluorescence intensity %) (substantia nigra pp38) [%]	Expression (p-α-s/GAPDH) (midbrain p-α-s)	Positive cell number (astrocytes with GFAP positive expression) (hippocampus GFAP)	number of hippocampus microglial cells with CD11b positive expression compared with the styryl sulfone prototype compounds (hippocampus CD11b)	number of substantia nigra microglial cells with CD11b positive expression compared with the styryl sulfone prototype compounds (substantia nigra CD11b)	number of hippocampus astrocytes with GFAP positive expression compared with the styryl sulfone prototype compounds (hippocampus GFAP)
Cc1ccc(S(=O)(=O)Oc2ccc(CS(=O)(=O)/C=C/c3ccc(OS(=O)(=O)c4ccc(C)cc4)c(OC(=O)N(C)S(=O)(=O)c4ccc(C)cc4)c3)cc2)cc1 [Compound S6-6, (E)-2-(N-methyl-N-p-tosylcarbamoyloxy)-4-{2-[(4-p-tosyloxyphenyl)mesyl]ethenyl}phenyl p-toluenesulfonate]	9 ± 2	1.07 ± 0.06	19 ± 2	105.30 ± 10.08	0.28 ± 0.06	58 ± 2	–	–	–
CN(C)c1ccc(CC(=O)Oc2cc(/C=C/S(=O)(=O)C(Br)c3ccc(Cc4ccc(N(C)C)cc4)cc3)ccc2OC(=O)N2CCCC2C(F)(F)F)cc1 (stereo not drawn) [Compound M1-5]	11 ± 1	0.83 ± 0.06	28 ± 3	87.45 ± 11.05	0.24 ± 0.05	67 ± 6	–	–	–
CCN(CC)C(=O)Oc1ccc(/C=C/S(=O)(=O)Cc2ccc(C(C)(C)C)cc2)cc1OC(=O)N(CC)CC [Compound G1-1, (E)-4-{2-[(4-t-butylphenyl)mesyl]ethenyl}-1,2-phenylenebis(diethylcarbamate)]	6 ± 1	0.70 ± 0.03	36 ± 3	82.16 ± 8.10	0.34 ± 0.09	66 ± 4	significantly lower	significantly lower	significantly lower
O=C(NC(=O)C(F)(F)F)Oc1ccc(/C=C/S(=O)(=O)C(F)(F)c2ccc(Oc3ccccn3)cc2)cc1OC(=O)C(F)(F)C(F)(F)F [Compound L1-4, (E)-5-{2-[(4-[pyridin-2-yl-oxy]phenyl)difluoromethylsulfonyl]ethenyl}-2-[N-(2,2,2-trifluoroacetyl)carbamoyloxy]phenyl-2,2,3,3,3-pentafluoropropionate]	15 ± 2	0.79 ± 0.04	35 ± 2	62.93 ± 17.51	0.38 ± 0.08	76 ± 4	–	–	–
CC[Si](CC)(Oc1ccc(C(Cl)S(=O)(=O)/C=C/c2ccc(OC(=O)N3CC(C)OC(C)C3)c(OC(=O)c3cccc(Cl)c3OC)c2)cc1)c1ccccc1 (stereo not drawn) [Compound R1-5, (E)-4-{2-[4-(diethylphenylsiloxy)phenylchloromesyl]ethenyl}-2-(3-chloro-2-methoxybenzoyloxy)phenyl-2,6-dimethylmorpholine-4-carboxylate]	17 ± 2	0.94 ± 0.03	39 ± 6	101.93 ± 7.44	0.46 ± 0.11	80 ± 2	–	–	–
C=CCOc1ccc(C/C=C/S(=O)(=O)/C=C/c2ccc(OC(C)=O)c(OC(=O)N(CC=C)CC=C)c2)cc1 [Compound K1-4, 4-{(E)-2-[(E)-3-(4-allyloxyphenyl)prop-1-en-1-yl]sulfonylethenyl}-2-(N,N-diallylcarbamoyloxy)phenyl acetate]	13 ± 2	0.74 ± 0.08	30 ± 4	100.80 ± 5.48	0.45 ± 0.12	71 ± 4	–	–	–
CC(Br)C(Br)COc1cc(/C=C/S(=O)(=O)CCc2ccc(OCC(F)(F)F)cc2)ccc1OC(=O)Nc1ccsc1 (stereo not drawn) [Compound K1-3, (E)-2-(2,3-dibromobutoxy)-4-{2-[4-(2,2,2-trifluoroethoxy)phenylethylsulfonyl]ethenyl}phenyl-N-(thien-3-yl)carbamate]	16 ± 1	0.91 ± 0.04	32 ± 4	73.08 ± 18.10	0.34 ± 0.10	65 ± 5	–	–	–
O=S(=O)(/C=C/c1ccc(O)c(O)c1)CCCc1ccccc1 [Compound 3C, (E)-4-{2-[(3-phenylpropyl)sulfonyl]ethenyl}benzene-1,2-diol, reference compound]	20 ± 3	0.63 ± 0.03	70 ± 6	138.79 ± 27.44	0.92 ± 0.13	147 ± 4	–	–	–
